Experimental data as given in paper PMC7252619 (PLoS ONE, 2020).
Where two headings read alike, the source gives them in different places.

Columns and labels:
Assay in all cases: Kinase activity test (ReactionBiology), % enzyme activity relative to DMSO
Type in all cases: biochemical
EPHB4 = target: T1, EPHB4 (Homo sapiens, UniProt P54760); settings: EPHB4;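 further: EPHB4 was one of ten selected kinases in the screening panel, with enzyme activity expressed as a percentage of DMSO controls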
T1 construct: purchased ReactionBiology
T1 sequence (P54760 16-987): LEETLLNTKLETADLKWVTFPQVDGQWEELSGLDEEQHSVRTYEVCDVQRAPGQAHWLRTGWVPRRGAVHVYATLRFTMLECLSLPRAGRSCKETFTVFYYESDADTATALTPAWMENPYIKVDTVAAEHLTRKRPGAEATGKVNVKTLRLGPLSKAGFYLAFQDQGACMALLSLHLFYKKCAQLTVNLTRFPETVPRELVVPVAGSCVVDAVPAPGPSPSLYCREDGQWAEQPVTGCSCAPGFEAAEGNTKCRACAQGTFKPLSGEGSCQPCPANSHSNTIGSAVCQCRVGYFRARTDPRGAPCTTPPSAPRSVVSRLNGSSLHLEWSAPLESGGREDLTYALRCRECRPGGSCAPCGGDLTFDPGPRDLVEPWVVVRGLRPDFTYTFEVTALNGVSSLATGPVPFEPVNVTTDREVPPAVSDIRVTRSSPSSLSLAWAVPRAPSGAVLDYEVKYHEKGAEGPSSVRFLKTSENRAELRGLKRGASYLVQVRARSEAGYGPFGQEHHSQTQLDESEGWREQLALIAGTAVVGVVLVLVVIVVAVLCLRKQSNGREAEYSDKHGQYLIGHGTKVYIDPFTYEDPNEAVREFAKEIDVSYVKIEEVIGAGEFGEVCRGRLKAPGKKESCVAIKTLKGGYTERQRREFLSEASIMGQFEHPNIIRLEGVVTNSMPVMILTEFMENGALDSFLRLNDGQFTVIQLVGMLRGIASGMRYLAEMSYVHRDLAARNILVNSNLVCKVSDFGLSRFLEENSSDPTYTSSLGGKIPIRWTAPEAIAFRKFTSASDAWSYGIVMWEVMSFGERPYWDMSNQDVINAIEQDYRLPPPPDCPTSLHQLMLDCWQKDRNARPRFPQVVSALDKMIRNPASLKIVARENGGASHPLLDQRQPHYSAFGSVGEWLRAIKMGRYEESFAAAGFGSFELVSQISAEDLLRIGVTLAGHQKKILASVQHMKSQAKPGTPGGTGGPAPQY

VEGFR2 = VEGFR2 (Homo sapiens, UniProt P35968); parameters: purchased ReactionBiology; settings: VEGFR2;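 further: VEGFR2 was one member of a ten-kinase screening panel testing marketed FDA-approved drugs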
NEK2 = target: T2, NEK2 (Homo sapiens, UniProt P51955); settings: NEK2;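 further: FDA-approved drugs chosen by structure-based repositioning, each screened at 10 or 1 µM for kinase activity, expressed as percent of DMSO controls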
T2 construct: purchased ReactionBiology
T2 sequence (P51955 1-445): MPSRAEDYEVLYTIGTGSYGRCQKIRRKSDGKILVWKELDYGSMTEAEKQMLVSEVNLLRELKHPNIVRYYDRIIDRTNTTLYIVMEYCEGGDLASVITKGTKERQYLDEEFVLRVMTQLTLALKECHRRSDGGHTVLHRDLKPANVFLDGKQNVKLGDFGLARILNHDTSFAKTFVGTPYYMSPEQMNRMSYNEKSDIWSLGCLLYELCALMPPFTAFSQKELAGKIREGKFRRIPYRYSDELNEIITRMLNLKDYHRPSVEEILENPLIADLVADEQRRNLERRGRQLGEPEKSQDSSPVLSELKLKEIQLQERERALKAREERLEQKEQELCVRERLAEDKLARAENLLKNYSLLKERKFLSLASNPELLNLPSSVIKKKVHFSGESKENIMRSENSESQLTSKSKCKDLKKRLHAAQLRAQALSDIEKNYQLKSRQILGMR

CK1d = target: T3, CK1d (Homo sapiens, UniProt P48730); settings: CK1d
T3 construct: purchased ReactionBiology

DAPK1 = target: T4, DAPK1 (Homo sapiens, UniProt P53355); settings: DAPK1
T4 construct: purchased ReactionBiology

MST-4 = target: T5, MST-4 (Homo sapiens, UniProt Q9P289); settings: for % Enzyme Activity (relative to DMSO controls), Average / % Enzyme Activity (relative to DMSO controls), Data 1 / % Enzyme Activity (relative to DMSO controls), Data 2: MST4; for % Enzyme Activity (relative to DMSO controls), Data 1: replicate Data 1; for % Enzyme Activity (relative to DMSO controls), Data 2: replicate Data 2;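 on all read-outs here: marketed FDA-approved drugs screened at 10 µM and 1 µM against a ten-kinase panel, remaining activity given as percent of DMSO controls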
T5 construct: purchased ReactionBiology

[1] = 1 uM, Average, read-out: % Enzyme Activity (relative to DMSO controls), Average
[2] = 1 uM, replicate Data 1, read-out: % Enzyme Activity (relative to DMSO controls), Data 1
[3] = 1 uM, replicate Data 2, read-out: % Enzyme Activity (relative to DMSO controls), Data 2
[4] = 10 uM, Average, read-out: % Enzyme Activity (relative to DMSO controls), Average
[5] = 10 uM, replicate Data 1, read-out: % Enzyme Activity (relative to DMSO controls), Data 1
[6] = 10 uM, replicate Data 2, read-out: % Enzyme Activity (relative to DMSO controls), Data 2
[7] = Average, read-out: % Enzyme Activity (relative to DMSO controls), Average
[8] = replicate Data 1, read-out: % Enzyme Activity (relative to DMSO controls), Data 1
[9] = replicate Data 2, read-out: % Enzyme Activity (relative to DMSO controls), Data 2
[10] = read-out: % Enzyme Activity (relative to DMSO controls), Average
[11] = read-out: % Enzyme Activity (relative to DMSO controls), Data 1
[12] = read-out: % Enzyme Activity (relative to DMSO controls), Data 2

T3 sequence (P48730 whole entry): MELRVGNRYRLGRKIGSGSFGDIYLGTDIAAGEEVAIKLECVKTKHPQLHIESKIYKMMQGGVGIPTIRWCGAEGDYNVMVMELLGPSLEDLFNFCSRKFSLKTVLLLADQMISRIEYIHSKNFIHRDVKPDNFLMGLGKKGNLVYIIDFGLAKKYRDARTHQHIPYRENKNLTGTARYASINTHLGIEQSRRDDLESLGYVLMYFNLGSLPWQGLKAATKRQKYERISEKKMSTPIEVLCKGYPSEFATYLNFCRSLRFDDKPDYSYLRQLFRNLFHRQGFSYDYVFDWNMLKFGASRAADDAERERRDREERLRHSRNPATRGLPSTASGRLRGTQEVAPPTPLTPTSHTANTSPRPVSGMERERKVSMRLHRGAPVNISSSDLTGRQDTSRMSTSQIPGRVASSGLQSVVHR
T5 sequence (Q9P289 whole entry): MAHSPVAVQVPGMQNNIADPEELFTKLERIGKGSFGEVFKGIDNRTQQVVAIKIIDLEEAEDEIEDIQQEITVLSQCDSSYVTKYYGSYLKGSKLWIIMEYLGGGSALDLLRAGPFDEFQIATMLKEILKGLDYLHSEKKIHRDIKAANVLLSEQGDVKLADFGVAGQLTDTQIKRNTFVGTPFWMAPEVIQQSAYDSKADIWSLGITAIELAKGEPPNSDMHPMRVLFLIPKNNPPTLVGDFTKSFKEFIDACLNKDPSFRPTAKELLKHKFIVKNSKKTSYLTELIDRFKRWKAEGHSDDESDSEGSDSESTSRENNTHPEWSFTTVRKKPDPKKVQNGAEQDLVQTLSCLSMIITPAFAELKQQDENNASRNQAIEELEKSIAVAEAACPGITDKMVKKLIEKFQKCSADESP
VEGFR2, sequence (P35968 20-1356): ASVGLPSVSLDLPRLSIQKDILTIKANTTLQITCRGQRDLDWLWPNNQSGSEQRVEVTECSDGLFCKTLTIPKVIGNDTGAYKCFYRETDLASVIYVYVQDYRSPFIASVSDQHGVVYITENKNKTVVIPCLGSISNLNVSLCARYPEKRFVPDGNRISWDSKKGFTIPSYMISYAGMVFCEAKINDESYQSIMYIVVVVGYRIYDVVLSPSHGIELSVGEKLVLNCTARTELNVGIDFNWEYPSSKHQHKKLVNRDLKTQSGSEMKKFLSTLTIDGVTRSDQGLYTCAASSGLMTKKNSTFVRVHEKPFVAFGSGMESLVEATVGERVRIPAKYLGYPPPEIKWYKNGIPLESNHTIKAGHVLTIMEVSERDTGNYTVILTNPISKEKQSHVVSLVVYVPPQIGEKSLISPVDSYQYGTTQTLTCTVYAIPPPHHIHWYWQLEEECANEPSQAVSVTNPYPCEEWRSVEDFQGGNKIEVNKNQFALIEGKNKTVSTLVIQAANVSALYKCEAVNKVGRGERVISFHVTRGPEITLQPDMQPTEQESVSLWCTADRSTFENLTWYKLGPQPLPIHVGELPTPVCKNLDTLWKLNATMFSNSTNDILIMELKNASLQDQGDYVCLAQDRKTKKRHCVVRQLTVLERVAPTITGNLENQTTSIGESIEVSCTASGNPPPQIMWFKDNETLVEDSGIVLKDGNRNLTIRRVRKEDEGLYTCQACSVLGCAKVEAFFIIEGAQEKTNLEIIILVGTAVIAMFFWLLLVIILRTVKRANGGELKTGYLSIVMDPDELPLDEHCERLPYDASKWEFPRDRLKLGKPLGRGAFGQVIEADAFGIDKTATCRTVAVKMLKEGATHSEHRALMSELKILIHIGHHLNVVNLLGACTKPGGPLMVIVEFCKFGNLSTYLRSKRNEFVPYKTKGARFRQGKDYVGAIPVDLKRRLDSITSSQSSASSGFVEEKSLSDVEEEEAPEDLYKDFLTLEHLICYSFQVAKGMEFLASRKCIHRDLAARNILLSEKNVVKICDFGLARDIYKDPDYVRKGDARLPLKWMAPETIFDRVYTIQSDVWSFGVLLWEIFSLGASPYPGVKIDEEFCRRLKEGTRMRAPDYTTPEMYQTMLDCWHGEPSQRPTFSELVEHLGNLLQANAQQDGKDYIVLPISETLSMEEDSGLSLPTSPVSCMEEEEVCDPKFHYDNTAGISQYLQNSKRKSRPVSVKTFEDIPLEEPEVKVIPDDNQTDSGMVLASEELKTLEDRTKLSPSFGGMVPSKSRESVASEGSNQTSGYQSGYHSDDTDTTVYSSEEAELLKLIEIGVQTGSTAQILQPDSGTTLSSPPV
T4 sequence (P53355 whole entry): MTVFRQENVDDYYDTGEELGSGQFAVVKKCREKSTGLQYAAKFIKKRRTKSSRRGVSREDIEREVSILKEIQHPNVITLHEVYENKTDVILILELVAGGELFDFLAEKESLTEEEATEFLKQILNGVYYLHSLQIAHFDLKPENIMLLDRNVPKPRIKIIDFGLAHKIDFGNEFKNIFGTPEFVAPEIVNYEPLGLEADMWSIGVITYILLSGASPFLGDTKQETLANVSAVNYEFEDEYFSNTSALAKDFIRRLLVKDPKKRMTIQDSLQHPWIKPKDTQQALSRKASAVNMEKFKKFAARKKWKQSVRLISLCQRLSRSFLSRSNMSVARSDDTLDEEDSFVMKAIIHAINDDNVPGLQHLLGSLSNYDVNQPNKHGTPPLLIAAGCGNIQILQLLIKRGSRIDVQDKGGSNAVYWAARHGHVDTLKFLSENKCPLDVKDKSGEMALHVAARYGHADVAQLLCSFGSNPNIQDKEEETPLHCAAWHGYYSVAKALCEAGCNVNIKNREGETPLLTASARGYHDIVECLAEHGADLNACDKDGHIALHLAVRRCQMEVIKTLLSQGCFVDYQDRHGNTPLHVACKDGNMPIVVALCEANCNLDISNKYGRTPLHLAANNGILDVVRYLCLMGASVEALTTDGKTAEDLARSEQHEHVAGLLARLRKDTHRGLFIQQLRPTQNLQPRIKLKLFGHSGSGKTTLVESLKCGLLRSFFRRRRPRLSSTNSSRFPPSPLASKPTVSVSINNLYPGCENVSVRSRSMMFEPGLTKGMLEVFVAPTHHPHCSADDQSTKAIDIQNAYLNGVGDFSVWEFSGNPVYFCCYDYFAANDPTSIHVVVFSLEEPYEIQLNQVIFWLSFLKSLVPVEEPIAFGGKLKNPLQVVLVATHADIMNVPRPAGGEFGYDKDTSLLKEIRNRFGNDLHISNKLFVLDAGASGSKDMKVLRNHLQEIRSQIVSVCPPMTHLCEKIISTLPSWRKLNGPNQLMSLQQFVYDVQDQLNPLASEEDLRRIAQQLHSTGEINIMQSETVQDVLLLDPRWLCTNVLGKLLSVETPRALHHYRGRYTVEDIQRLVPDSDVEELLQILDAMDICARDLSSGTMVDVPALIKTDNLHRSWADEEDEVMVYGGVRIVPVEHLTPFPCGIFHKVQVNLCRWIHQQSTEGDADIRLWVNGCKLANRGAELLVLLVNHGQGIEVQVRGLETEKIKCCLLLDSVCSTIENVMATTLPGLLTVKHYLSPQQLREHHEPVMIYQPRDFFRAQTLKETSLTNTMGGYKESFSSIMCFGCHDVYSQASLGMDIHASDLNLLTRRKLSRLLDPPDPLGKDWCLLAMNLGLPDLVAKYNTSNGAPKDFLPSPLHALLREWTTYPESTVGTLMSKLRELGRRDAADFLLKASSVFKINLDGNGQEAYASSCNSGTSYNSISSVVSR

| Structure (SMILES) | remaining activity at 1 µM (EPHB4; [1]) | remaining activity at 1 µM (EPHB4; [2]) | remaining activity at 1 µM (EPHB4; [3]) | remaining activity at 10 µM (EPHB4; [4]) | remaining activity at 10 µM (EPHB4; [5]) | remaining activity at 10 µM (EPHB4; [6]) | remaining activity at 1 µM (VEGFR2; [1]) | remaining activity at 1 µM (VEGFR2; [2]) | remaining activity at 1 µM (VEGFR2; [3]) | remaining activity at 10 µM (VEGFR2; [4]) | remaining activity at 10 µM (VEGFR2; [5]) | remaining activity at 10 µM (VEGFR2; [6]) | remaining activity at 1 µM (DAPK1; [1]) | remaining activity at 1 µM (DAPK1; [2]) | remaining activity at 1 µM (CK1d; [1]) | remaining activity at 1 µM (CK1d; [2]) | remaining activity at 1 µM (CK1d; [3]) | remaining activity at 10 µM (CK1d; [7]) | remaining activity at 10 µM (CK1d; [8]) | remaining activity at 10 µM (CK1d; [9]) | also measured |
| --- | --- | --- | --- | --- | --- | --- | --- | --- | --- | --- | --- | --- | --- | --- | --- | --- | --- | --- | --- | --- | --- |
| O=C1Nc2ccc(Cl)cc2[C@@](C#CC2CC2)(C(F)(F)F)O1 [Efavirenz] | – | – | – | – | – | – | – | – | – | – | – | – | – | – | – | – | – | – | – | – | % Enzyme Activity (relative to DMSO controls), Data 1 (EPHB4; 1 uM, replicate Data 1): 93.6%; % Enzyme Activity (relative to DMSO controls), Data 1 (EPHB4; 10 uM, replicate Data 1): 93.32%; % Enzyme Activity (relative to DMSO controls), Data 1 (VEGFR2; 1 uM, replicate Data 1): 102.21%; % Enzyme Activity (relative to DMSO controls), Data 1 (VEGFR2; 10 uM, replicate Data 1): 95.58%; % Enzyme Activity (relative to DMSO controls), Data 1 (NEK2; 1 uM, replicate Data 1): 110.94%; % Enzyme Activity (relative to DMSO controls), Data 1 (NEK2; 10 uM, replicate Data 1): 81.38%; % Enzyme Activity (relative to DMSO controls), Data 1 (CK1d; 1 uM, replicate Data 1): 101.66% |
| CC(=O)O[C@H]1C[C@@]2(C)[C@@H](C[C@@H](O)[C@H]3[C@@]4(C)CC[C@@H](O)[C@@H](C)[C@@H]4CC[C@@]32C)/C1=C(\CCC=C(C)C)C(=O)O [Fusidic acid] | 101% | 101% | 101% | 92.3% | 95.3% | 89.3% | 109% | 110% | 107% | 101% | 96% | 105% | 96.4% | 102% | 100% | 95.3% | 105% | 111% | 113% | 108% | remaining activity at 1 µM (DAPK1; [3]): 90.5%; remaining activity at 10 µM (DAPK1; [4]): 93.7%; remaining activity at 10 µM (DAPK1; [5]): 93%; remaining activity at 10 µM (DAPK1; [6]): 94.5% |
| Cc1cccc(C)c1OCC(=O)N[C@@H](Cc1ccccc1)[C@@H](O)C[C@H](Cc1ccccc1)NC(=O)[C@H](C(C)C)N1CCCNC1=O [Lopinavir, reference compound] | 92.6% | 95.6% | 89.7% | 87.3% | 89% | 85.7% | 104% | 106% | 103% | 99% | 103% | 95% | 90.4% | 87.6% | 107% | 111% | 102% | 109% | 113% | 105% | remaining activity at 1 µM (NEK2; [1]): 116%; remaining activity at 1 µM (NEK2; [2]): 118%; remaining activity at 1 µM (NEK2; [3]): 115%; remaining activity at 10 µM (NEK2; [4]): 88.7%; remaining activity at 10 µM (NEK2; [5]): 98.3%; remaining activity at 10 µM (NEK2; [6]): 79.2%; remaining activity at 1 µM (DAPK1; [3]): 93.2%; remaining activity at 10 µM (DAPK1; [4]): 49.9%; remaining activity at 10 µM (DAPK1; [5]): 47.2%; remaining activity at 10 µM (DAPK1; [6]): 52.5%; remaining activity at 1 µM (DAPK1; compound 1μM, relative to DMSO controls, read-out: % Enzyme activity at 1μM): 90.4%; remaining activity at 10 µM (DAPK1; compound 10μM, relative to DMSO controls, read-out: % Enzyme activity at 10μM): 49.9% |
| O=P(O)(O)C(O)(Cc1cnc2ccccn12)P(=O)(O)O [Minodronic acid] | – | – | – | – | – | – | – | – | – | – | – | – | – | – | – | – | – | – | – | – | remaining activity at 1 µM (MST-4; [10]): 95.6%; remaining activity at 10 µM (MST-4; [10]): 81.5%; remaining activity at 1 µM (MST-4; [11]): 84.5%; remaining activity at 10 µM (MST-4; [11]): 83.7%; remaining activity at 1 µM (MST-4; [12]): 107%; remaining activity at 10 µM (MST-4; [12]): 79.3% |
| O=C(O)c1ccccc1O [Salicylic acid] | 101% | 99.4% | 102% | 93.4% | 93% | 93.8% | 96.6% | 94.4% | 98.7% | 101% | 103% | 99.4% | – | – | 105% | 107% | 103% | 109% | 109% | 110% | remaining activity at 1 µM (NEK2; [1]): 88.2%; remaining activity at 1 µM (NEK2; [2]): 88.1%; remaining activity at 1 µM (NEK2; [3]): 88.3%; remaining activity at 10 µM (NEK2; [4]): 102%; remaining activity at 10 µM (NEK2; [5]): 93.8%; remaining activity at 10 µM (NEK2; [6]): 109% |
| O=C(CCCCCCC(=O)Nc1ccccc1)NO [Vorinostat] | – | – | – | – | – | – | – | – | – | – | – | – | – | – | – | – | – | – | – | – | % Enzyme Activity (relative to DMSO controls), Average (MST-4; 1 uM): 61.30%; % Enzyme Activity (relative to DMSO controls), Data 1 (MST-4; 1 uM): 64.87%; % Enzyme Activity (relative to DMSO controls), Data 2 (MST-4; 1 uM): 57.73%; % Enzyme Activity (relative to DMSO controls), Average (MST-4; 10 uM): 101.79%; % Enzyme Activity (relative to DMSO controls), Data 1 (MST-4; 10 uM): 93.77%; % Enzyme Activity (relative to DMSO controls), Data 2 (MST-4; 10 uM): 109.8% |
